Results on 4 compounds are retold here after US10208007B2, “Use of strigolactones and strigolactone analogs for treating proliferative conditions” (The State of Israel, Ministry of Agriculture & Rural …, priority 2011, dated 2019).

The term viability denotes the share of living cells, or the viability signal relative to a control. A low value points to a greater loss of cells.

The test system of one assay is HCT116 cells. Briefly: XTT viability after timed exposure and strigolactone removal. Particulars: Homo sapiens. (In general: Tetrazolium assays rely on reduction of a dye to a coloured formazan, in cell work by metabolically active cells.)
A further assay concerns pAKT. In words: Immunoblot with densitometric quantification. It counts as cell-based, human. The method, then: Protein concentration was determined using the BCA Protein Assay (Pierce), and 20-50 μg of lysate were separated in a 4-12% SDS-PAGE gel. After transfer, membranes were blocked for 15-30 min at room temperature in 5% BSA (Sigma) in Tris-buffered saline containing 0.1% Tween-20. Primary antibody was incubated for either 1.5 hours at room temperature or overnight at 4° C. Secondary antibody was incubated for 30-45 min at room temperature, and proteins were visualized with West Pico Stable (Pierce). All antibodies were used at 1:1000 dilution unless otherwise stated. pT308AKT, AKT, pT180/Y182, pT183/Y185 P38MAPK, pP38MAPK, pT202/Y204 pERK1/2, ERK1, pT183/Y185, pJNK1/2, JNK1, pT71ATF2, pT581MSK1, pT14 Cdc2, Cdc2, pT68Chk2 (cell signaling), pT334MAPKAPK, pS82HSP27 (Cell Signaling Technology, Danvers, Mass.), α-tubulin (Biomarkers, 1:50,000), Cyclin B1 (Santa Cruz Biotechnologies) and horseradish peroxidase-conjugated anti-rabbit IgG and anti-mouse IgG (1:5,000, Pierce).
Densitometric quantifications were carried out using ImageJ software (NIMH).
[…] The family of MAPK enzymes plays a pivotal role in cell growth, survival and cellular stress responses. […]
(Immunoblotting shows a protein as a band on a membrane.)

In another assay the test system is Saccharomyces cerevisiae. Briefly: Yeast cell culture growth (OD). It counts as cell-based. The method, then: Saccharomyces cerevisiae and Candida oleophila yeast cells were grown overnight in a reach nutrient media at 28° C., at 150 rpm. Following, they were diluted to 0.4 OD in low nutrient media (Lily) and were divided into 96 wells. The cells were treated with GR-24 or ST-362, at the indicated concentrations. Cell culture growth was monitored every hour for 17 hours, at 28° C., with gentle shake before each OD read. OD was determined using fluorometer. Statistical differences between curves were analyzed using compareGrowthCurves function from the Statistical Modeling package, statmod (http://bioinf.wehi.edu.au/software/compareCurves/), significance was determined once P≤0.05.

Assay [1] deals with breast cancer cells both luminal (estrogen receptor positive) and basal (estrogen receptor negative). Briefly: IC50 by number of cells per well versus control cultures. Type of assay: cell-based. The method, then:
The IC50 values are defined herein as that concentration of active ingredient at which the number of cells per well at the end of the incubation period is only 50% of the number of cells in the control cultures. The IC50 values thus determined are, for the compounds of formula II, approximately from 0.1 to 50 μmoliliter.

Assay [2] concerns Arabidopsis thaliana wild type root tips. Briefly: Root-tip structure and cellular morphology. Particulars: WT seedlings. Type of assay: in vivo. Here is the method:
Seeds of homozygous lines of Arabidopsis thaliana wild type (WT; Columbia; Col-0) and max2-1 mutant (http://abrc.osu.edu/) were surface-sterilized and germinated on 1/2 Murashige and Skoog (MS) plates supplemented with 1% sucrose and solidified with 0.7% agar. Plates were incubated vertically in the dark at 4° C. for two days to synchronize germination. Three days after germination, seedlings were gently transferred using forceps to 1/2 MS plates containing various concentrations of GR-24 as a mixture of four diastereomers: (±)-GR-24 and (±)-2′-epi-GR-24. The root tip of the transferred seedling was marked on the plates. The plates remained unsealed to prevent accumulation of gases (e.g., ethylene), and were positioned in an upright 45° position, and incubated at 22° C. with a light intensity of […] m-2 s-1 provided by white fluorescent tubes and under a photoperiod of 16 hours exposure to light/8 hours in the dark for 6-12 days. […] GR-24, ST-357 and ST-362 were initially dissolved in acetone to give a 4.5 mM, 10 μM and 10 μM solutions, respectively, which were then further diluted with double-distilled sterile water (DDW). […] Where differences were recorded between non-treated and acetone controls, the comparison was made between GR-24, ST-357 and ST-362-treated and acetone-treated roots. […]

SMILES strings stand for the structures.

Protocol for HCT116 cells: At each time point the strigolactone analog was removed and the media was replaced with fresh growth media without strigolactone analog. […] In addition, viability of MDA-MB-231 cells was assessed after 24 hours by using an XTT assay (FIG. 9B). […] After 2, 4 or 24 hours the media was removed, cells were washed and media was replaced with growth media minus strigolactone analog.

Regarding `CC1=CC(O/C=C2\Cc3c(n(C)c4cc(-c5cccs5)ccc34)C2=O)OC1=O` (racemic) [MEB-55, (±) 2E-4-methyl-2-(4-methyl-5-oxo-2,5-dihydrofuran-2-yloxymethylene)-6-thiophen-2-yl-1,4-dihydro-2H-cyclopenta[b]indol-3-one], the viability at 10 ppm in the assay on HCT116 cells (HCT-116, 1 h) is 75%; with HCT116 cells (HCT-116, 4 h), 18%. The viability at 20 ppm in the assay on HCT116 cells (HCT-116, 1 h) turned out to be 68%; in the assay with HCT116 cells (HCT-116, 4 h) it was 0%. Also, the pAKT levels decrease in the assay with pAKT (DU145, 8 hours) is on record as 6 fold. The pAKT levels entry in the assay on pAKT (DU145, 24 hours) was “undetectable levels”.

Regarding `CC1=CC(O/C=C2/C(=O)c3c(c4cc(-c5scc6c5OCCO6)ccc4n3C)C2C)OC1=O` (stereo not drawn) [ST-362, (2E)-2-[(2,5-dihydro-4-methyl-5-oxofuran-2-yloxy)methylene]-1,2-dihydro-7-(2,3-dihydrothieno[3,4-b][1,4]dioxin-7-yl)-1,4-dimethyl-cyclopenta[b]indole-3-(4H)-one], the “Concentrations giving a significant reduction in cell culture growth” value with Saccharomyces cerevisiae (apparent from the time of application) was at least 0.1 µM.

In turn, `CC1=CC(O/C=C2/C(=O)c3c(c4cc(-c5cccs5)ccc4n3C)C2C)OC1=O` (stereo not drawn) [ST-357, (2E)-1,4-dimethyl-2-((4-methyl-5-oxo-2,5-dihydrofuran-2-yloxy)methylene)-7-(thiophen-2-yl)-1,2-dihydrocyclopenta[b]indol-3(4H)-one] came in with a viability at 10 ppm in the assay with HCT116 cells (HCT-116, 1 h) of 75%. Further, the viability at 20 ppm with HCT116 cells (HCT-116, 1 h) worked out at 63%; with HCT116 cells (HCT-116, 4 h) it was 50%; in the assay with HCT116 cells (HCT-116, 8 h), 10%.

On to `CC1=C[C@H](O/C=C2/C(=O)O[C@@H]3c4ccccc4C[C@H]23)OC1=O` (relative stereo) [GR-24, (3aR*,8bS*,E)-3-(((R*)-4-methyl-5-oxo-2,5-dihydrofuran-2-yloxy)methylene)-3,3a,4,8b-tetrahydro-2H-indeno[1,2-b]furan-2-one], for which, in assay [1], the IC50 value result is “in the range of micromolar concentration”. Further, the Root tip morphology entry in assay [2] (13.5 μM exogenously supplied) is “deformation of the root tips”. Also, the “Starch granules in the columella cells” value in assay [2] (27 μM) was “abolished the starch granules”. The Cell culture growth entry in the assay with Saccharomyces cerevisiae (apparent 8 hours after application, 17 hours monitoring) is given as “significant reduction in cell culture growth”.
